Laboratory results from ChEMBL document CHEMBL3045125, “Isolation and Insecticidal Activity of Three Acetogenins from Seeds of Pond Apple, Annona glabra L” (1991).
Activity calls are given as the source filed them. The rule behind the calls is not given here.

Tests used:
Callosobruchus chinensis [1] = test: Insecticidal activity against adult of Callosobruchus chinensis assessed as mortality at 0.1 ug/insect applied topically after 24 hr relative to control; format: functional
Callosobruchus chinensis [2] = test: Insecticidal activity against adult of Callosobruchus chinensis assessed as mortality at 5 ug/insect applied topically after 24 hr relative to control; format: functional
Callosobruchus chinensis [3] = test: Insecticidal activity against adult of Callosobruchus chinensis assessed as mortality at 1 ug/insect applied topically after 24 hr relative to control; format: functional
Callosobruchus chinensis [4] = test: Insecticidal activity against adult of Callosobruchus chinensis assessed as mortality at 0.5 ug/insect applied topically after 24 hr relative to control; format: functional
Nephotettix cincticeps = test: Insecticidal activity against 2nd-instar nymphs of Nephotettix cincticeps (green rice leafhopper) in rice seedlings assessed as lethality at 10 mg/ml after 1 week; format: functional, organism-based
Plutella xylostella = test: Insecticidal activity against 2nd-instar larvae of Plutella xylostella (diamondback moth) in cabbage leaf assessed as lethality and growth inhibition at 0.1 mg/ml after 2 days; format: functional, organism-based
[5] = tested on: Henosepilachna vigintioctopunctata; test: Insecticidal activity against second-instar larvae of Henosepilachna vigintioctopunctata assessed as lethality at 10 mg/ml measured everyday for 1 week; format: functional, organism-based
Tetranychus urticae = test: Insecticidal activity against adult of Tetranychus urticae (two-spotted spider mite) in kidney bean leaf assessed as egg hatching ability after 1 week; format: functional, organism-based
Mamestra brassicae = test: Insecticidal activity against third-instar larvae of Mamestra brassicae in cabbage leaf assessed as feeding deterrent and growth inhibition at 10 mg/ml after 2 days; format: functional, organism-based
Crocidolomia = test: Insecticidal activity against second-instar larvae of Crocidolomia binotalis in cabbage leaf assessed as growth inhibition at 10 mg/ml after 2 days; format: functional, organism-based

Q: How did the Activity (Callosobruchus chinensis [1]) turn out when `CCCCCCCCCCC(O)C1CCC(C2CCC(C(O)CCCCCCCC[C@H](O)CC3=C[C@@H](C)OC3=O)O2)O1` (stereo partly drawn) [ASIMICIN] was run?
A: The Activity was 15%.

Q: What about the Activity (Callosobruchus chinensis [2]) of the same compound?
A: Its Activity is 100%.

Q: And the Activity (Callosobruchus chinensis [3])?
A: Its Activity is 85%.

Q: What about the Activity (Callosobruchus chinensis [4]) of the same compound?
A: The Activity was 60%.

Q: Which Activity (Callosobruchus chinensis [1]) does the source give for `CCCCCCCCCC[C@H](O)[C@H]1CC[C@H]([C@H]2CC[C@H]([C@H](O)CCCCCCCCCCCCC3=C[C@H](C)OC3=O)O2)O1` [BULLANIN] here?
A: The Activity was 0%.

Q: What about the Activity (Callosobruchus chinensis [2]) of the same compound?
A: The Activity was 90%.

Q: What about the Activity (Callosobruchus chinensis [3]) of the same compound?
A: The Activity was 25%.

Q: What about the Activity (Callosobruchus chinensis [4]) of the same compound?
A: The Activity was 10%.

Q: With `CCCCCC[C@H](O)CCC[C@H](O)[C@H]1CC[C@H]([C@H]2CC[C@H]([C@H](O)CCCCCCCCCCCCC3=C[C@H](C)OC3=O)O2)O1` [SQUAMOCIN] as the compound, how does the Activity (Nephotettix cincticeps) read?
A: Its Activity is “Active”.

Q: And the Activity (Plutella xylostella)?
A: Its Activity is “Active”.

Q: What about the Activity (Callosobruchus chinensis [1]) of the same compound?
A: Its Activity is 0%.

Q: What about the Activity [5] of the same compound?
A: Its Activity is “Active”.

Q: What about the Activity (Callosobruchus chinensis [2]) of the same compound?
A: The Activity was 90%.

Q: And the Activity (Callosobruchus chinensis [3])?
A: Its Activity is 29%.

Q: What about the Activity (Tetranychus urticae) of the same compound?
A: Its Activity is “inactive”.

Q: And the Activity (Callosobruchus chinensis [4])?
A: Its Activity is 20%.

Q: What about the Activity (Mamestra brassicae) of the same compound?
A: Its Activity is “Active”.

Q: And the Activity (Crocidolomia)?
A: The Activity was “Active”.
